Assay results as given in PMC3751085, “A simple methodology to assess endolysosomal protease activity involved in antigen processing in human primary cells” (BMC Cell Biology, 2013).
Read-outs that look alike come from different tables or passages of the source.

Legend:
[1] = Peptide degradation assay in purified cytosol from PBMC; format: in vitro ADME; details: human, s9, amount equivalent to endolysosomes (same number of cells), 8 nM peptide in degradation buffer (20 mM HEPES, 1 mM MgCl2, 137 mM K acetate, 1 mM ATP), 37°C, % original peptide remaining by RP-HPLC, representative of two replicates
Description: The percentage of acid phosphatase activity in each fraction was used to determine the number of cells that yielded endolysosomes in each fraction. […] The disappearance of the peptide was monitored by RP-HPLC, where the amount of peptide is proportional to the surface area under its peak.
(§1) Endolysosomes were purified from crude PBMC lysate by differential centrifugation. PBMCs were isolated from human buffy coats using Ficoll centrifugation [29]. Cells resuspended in extraction buffer at a concentration of 5 × 10^8 cells/ml [30] were lysed using glass beads as in a previous study done in our laboratory [31]. The cell lysate was centrifuged at 1000g for 10 min at 4°C. The supernatant was transferred to a new tube and centrifuged at 20,000 g for 20 min at 4°C. The resulting pellet consists of endoplasmic reticulum, mitochondria and endolysosomes. The supernatant corresponds to purified cytosolic fraction. […] 120 μl fractions were collected and further analyzed for endolysosomal enrichment.
In studies involving purified endolysosome, an acid phosphatase assay was performed on the fractions and the amount of acid phosphatase activity was used to calculate the total number of cells from which each fraction was derived. […] Another 50 μl of the degradation buffer was added to each sample and the amount of peptide remaining was analyzed by RP-HPLC.

[2] = human, cells or culture medium
Description: The percentage of acid phosphatase activity in each fraction was used to determine the number of cells that yielded endolysosomes in each fraction. […] The disappearance of the peptide was monitored by RP-HPLC, where the amount of peptide is proportional to the surface area under its peak. Upon degradation the peak area reduced and additional peaks corresponding to degradation products appeared [15].
(§2) We performed a degradation assay as mentioned in Figure 1 and analyzed the peptide fragments produced by mass spectrometry. We compared the degradation of a longer HIV peptide relevant to antigen processing and peptide-based immunogens with crude lysate and purified endolysosomes at pH 5.5 (late endosomal pH) and 4.0 (lysosomal pH) [26]. […] The products of the degradation after a 60-minute incubation with either crude lysate or purified endolysosomes at pH 4.0 and 5.5 were identified by mass spectrometry. […] We compared by mass spectrometry the identity and corresponding peak sirface intensities of all peptides produced in purified endolysosomes and in crude lysate at pH 4 and 5.5 (Additional file 3: Figure S3A).
as §1
The assay is adapted from previously published studies from our laboratory [31]. […] Another 50 μl of the degradation buffer was added to each sample and the amount of peptide remaining was analyzed by RP-HPLC.

[3] = in vitro; details: human, cells or culture medium, pH 4
Protocol: These degradation assays were performed in the presence of cathepsin inhibitors to identify specific cathepsins that played a role in antigen processing. […] The products of peptide degradation after 0, 10, 30 and 60 minutes of the reaction were analyzed by RP-HPLC and the percentage of remaining original peptide was quantified from the area under peak (Figure 3A). To rule out any effect of acidic pH on the peptides, the peptide was incubated for the same amount of time with the reaction buffer without any crude lysate and the peptide was quantified by RP-HPLC (Figure 3B). As mentioned in Figure 1D, a half-life of the peptide in the presence or absence of cathepsin can be calculated. […] Therefore, on fitting a one-phase exponential decay curve, we calculated the stability rate of the peptide at each pH (Figure 3C). […] The stability rate of the peptide without inhibitor was assigned a value of one and the fold change in the stability rate in the presence of inhibitors was calculated. […] The experiment was repeated using PBMC lysate from three different healthy donors and the average of three results are shown in Figure 3C.
as §2
8 nM of peptide was incubated with 30 μg of crude PBMC lysate in 250 μl of degradation buffer (20 mM HEPES, 1 mM magnesium chloride, 137 mM potassium acetate, 1 mM ATP) that was adjusted to the appropriate pH. In studies involving purified endolysosome, an acid phosphatase assay was performed on the fractions and the amount of acid phosphatase activity was used to calculate the total number of cells from which each fraction was derived. Using this approach, equivalent amount of cytosol and endolysosome that were derived from the same number of cells were used in peptide degradation assays. […] When using inhibitors, the compound was added to the crude lysate before addition of the peptide and incubated at room temperature for 30 minutes. […] Another 50 μl of the degradation buffer was added to each sample and the amount of peptide remaining was analyzed by RP-HPLC. […]

[4] = not given; remark: listed apart in the source

Molecule | half-life at 8 nM [1] [min] | half-life [2] [min] | half-life of the peptide in endolysosomes at pH 4.0 (purified endolysosomes, pH 4.0, 37°C, RP-HPLC, data not shown) [min] | half-life [3] [min] | number of peptide fragments identified after degradation in endolysosomes (pH 4) [peptides] | fragments of the crude lysate degradation similar to those produced in endolysosomes, pH 4.0 ([4]; pH 4) [%] | number of peptide fragments identified after degradation in crude lysate ([4]; pH 4) [peptides] | fragments of the crude lysate degradation similar to the endolysosomal fraction, pH 5.5 ([4]; pH 5.5) [%]
CC[C@H](C)[C@H](NC(=O)[C@@H](NC(=O)[C@H](CCC(=O)O)NC(=O)[C@@H]1CCCN1C(=O)[C@H](CO)NC(=O)[C@H](Cc1ccccc1)NC(=O)[C@H](C)NC(=O)[C@@H](N)CCCCN)C(C)C)C(=O)N1CCC[C@H]1C(=O)N[C@@H](CCSC)C(=O)N[C@@H](Cc1ccccc1)C(=O)O [B57KF11] | 36 | 8 | 8 | 6 |  |  |  | 
KVVEEKAFSPEVIPMFAAL [5-KF11-3] |  |  |  |  | 39 | 84.75 | 32 | 76.2
